Reference: paper PMC467089, “Click estradiol dimers with novel aromatic bridging units: synthesis and anticancer evaluation” (Journal of Enzyme Inhibition and Medicinal Chemistry, 2024)
Entries after “also recorded” stand apart in the source; their conditions may differ.

What was measured:
CCRF-CEM lymphoblasts [1] = assay: BrDU incorporation analysis (DNA synthesis); format: cell-based, human
In short: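 Percentage of BrDU-incorporating cells was measured by flow cytometry after anti-BrdU/FITC and propidium iodide staining. Before that, CCRF-CEM lymphoblasts treated 24 h with compound received a 30-min 10 μM BrDU pulse, then ethanol fixation and 2 M HCl denaturation.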

CCRF-CEM lymphoblasts [2] = assay: Phospho-histone H3 (Ser10) mitotic marker, flow cytometry; format: cell-based, human
In short: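 Mitotic fraction scored by flow cytometry (488 nm) using Ser10-phosphorylated histone H3 antibody plus propidium iodide DNA stain, following RNase. CCRF-CEM lymphoblasts had 24 h compound exposure before ethanol fixation and Triton X-100 permeabilisation; events below G1 DNA content classed as fragmented-DNA, non-viable cells.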

[3] = MTS cytotoxicity assay, HUVEC; format: cell-based; conditions: human, HUVEC cells (umbilical vein endothelial cells); MTS assay, 72-h incubation, mean ± SD of 3 independent experiments; read-out: IC50 cytotoxic activity HUVEC
In short: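 MTS read-out after 72 h compound exposure at 37 °C. Cells plated the day before, treated with fourfold serial dilutions from DMSO stocks; duplicate wells, three independent experiments.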

porcine brain tubulin = target: T1, porcine brain tubulin (Sus scrofa, UniProt P02550+P02554); assay: Tubulin polymerisation assay; format: biochemical; conditions: for inhibitory activity against tubulin polymerisation (in words): 10 μmol/L, Vmax relative to DMSO; for IC50: dose-response, mean ± SD of two independent experiments, read-out: IC50 inhibition of tubulin assembly; for inhibition at 10 µM: read-out: Tubulin polymerisation inhibition
T1 construct: purchased Cytoskeleton, Denver, CO; host or cells: porcine brain (tissue-purified)
T1 sequence (P02550 whole entry): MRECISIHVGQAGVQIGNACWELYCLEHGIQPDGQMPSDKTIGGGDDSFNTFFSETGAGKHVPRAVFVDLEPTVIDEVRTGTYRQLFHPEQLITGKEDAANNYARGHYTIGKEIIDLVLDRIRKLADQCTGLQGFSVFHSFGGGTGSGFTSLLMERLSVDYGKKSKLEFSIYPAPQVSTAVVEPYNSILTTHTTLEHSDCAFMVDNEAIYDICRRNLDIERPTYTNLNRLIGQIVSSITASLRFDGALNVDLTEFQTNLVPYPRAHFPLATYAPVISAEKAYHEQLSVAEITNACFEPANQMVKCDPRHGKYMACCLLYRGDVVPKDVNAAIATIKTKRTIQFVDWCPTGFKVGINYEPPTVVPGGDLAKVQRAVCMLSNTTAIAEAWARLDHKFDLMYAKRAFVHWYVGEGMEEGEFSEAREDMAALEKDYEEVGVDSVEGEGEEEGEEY
T1 sequence (P02554 whole entry): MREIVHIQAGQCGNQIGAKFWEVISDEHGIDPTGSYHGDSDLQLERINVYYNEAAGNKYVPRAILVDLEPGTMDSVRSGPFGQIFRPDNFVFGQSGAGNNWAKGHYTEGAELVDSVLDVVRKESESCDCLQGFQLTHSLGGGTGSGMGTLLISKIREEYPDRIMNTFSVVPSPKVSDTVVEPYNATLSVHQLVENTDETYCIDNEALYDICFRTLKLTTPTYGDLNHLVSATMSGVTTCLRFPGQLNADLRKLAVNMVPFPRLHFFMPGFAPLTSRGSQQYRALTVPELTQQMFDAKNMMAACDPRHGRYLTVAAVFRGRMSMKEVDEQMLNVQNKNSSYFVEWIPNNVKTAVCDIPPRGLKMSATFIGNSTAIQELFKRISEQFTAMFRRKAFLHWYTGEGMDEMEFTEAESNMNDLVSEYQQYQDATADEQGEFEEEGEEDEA
In short: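 Test compounds (10 μmol/L) or DMSO vehicle added to >99% pure porcine brain tubulin. Polymerisation read at 37 °C on a plate reader, and Vmax taken from each curve.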

[4] = tested on: K562-TAX (paclitaxel-resistant variant of K562); assay: MTS cytotoxicity assay, K562-TAX; format: cell-based, human; conditions: Homo sapiens, K562-Tax; MTS assay, 72-h incubation, mean ± SD of 3 independent experiments; read-out: IC50 cytotoxic activity K562-TAX
In short: (§1)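 Cells kept in recommended medium with 10% foetal calf serum and penicillin/streptomycin at 37 °C, 5% CO2, seeded overnight, then exposed to fourfold serial DMSO dilutions of compound for 72 h. Viability was read with MTS reagent; technical duplicates, three biological replicates.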

[5] = MTS cytotoxicity assay, MRC-5; format: cell-based; conditions: human, MRC-5 cells (non-tumour fibroblasts); MTS assay, 72-h incubation, mean ± SD of 3 independent experiments; read-out: IC50 cytotoxic activity MRC-5
In short: as §1

[6] = tested on: A549 (lung adenocarcinoma); assay: MTS cytotoxicity assay, A549; format: cell-based, human; conditions: MTS assay, 72-h incubation, mean ± SD of 3 independent experiments; for IC50: Homo sapiens, A549, read-out: IC50 cytotoxic activity A549
In short: as §1

[7] = tested on: CCRF-CEM (childhood T-cell acute lymphoblastic leukaemia); assay: MTS cytotoxicity assay, CCRF-CEM; format: cell-based; conditions: Homo sapiens, MTS assay, 72-h incubation, mean ± SD of 3 independent experiments, read-out: IC50 cytotoxic activity CCRF-CEM
In short: as §1

[8] = MTS cytotoxicity assay, BJ; format: cell-based; conditions: human, BJ cells (non-tumour skin fibroblasts); MTS assay, 72-h incubation, mean ± SD of 3 independent experiments; read-out: IC50 cytotoxic activity BJ
In short: as §1

[9] = tested on: HCT116p53−/− (p53 gene null variant of HCT116); assay: MTS cytotoxicity assay, HCT116p53−/−; format: cell-based; conditions: Homo sapiens, HCT-116; MTS assay, 72-h incubation, mean ± SD of 3 independent experiments; read-out: IC50 cytotoxic activity HCT116p53-
In short: as §1

CCRF-CEM lymphoblasts [10] = assay: Cell cycle analysis by flow cytometry (propidium iodide); format: cell-based, human
In short: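 CCRF-CEM cells treated 24 h, then fixed in cold 70% ethanol, permeabilised with 0.25% Triton X-100 and stained with anti-phospho-histone H3 (Ser10). After 50 μg/mL RNase and propidium iodide, analysed by flow cytometry at 488 nm; sub-G1 events counted as non-viable with fragmented DNA.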

| Compound | BrDU, % of positive cells (CCRF-CEM lymphoblasts [1]; 1×IC50, 24 h) | BrDU, % of positive cells (CCRF-CEM lymphoblasts [1]; 5×IC50, 24 h) | pH3Ser10, % of positive cells (CCRF-CEM lymphoblasts [2]; 1×IC50, 24 h) | pH3Ser10, % of positive cells (CCRF-CEM lymphoblasts [2]; 5×IC50, 24 h) | IC50 at 72 h [3] | IC50 (porcine brain tubulin) | inhibition at 10 µM (porcine brain tubulin) | IC50 [4] | IC50 at 72 h [5] | IC50 [6] | IC50 [7] | IC50 at 72 h [8] | IC50 [9] | <G1 (sub-G1, fragmented DNA), % of positive cells (CCRF-CEM lymphoblasts [10]; 1×IC50, 24 h) | >G2/M (polyploidy), % of positive cells (CCRF-CEM lymphoblasts [10]; 1×IC50, 24 h) | G0/G1, % of positive cells (CCRF-CEM lymphoblasts [10]; 1×IC50, 24 h) | G2/M, % of positive cells (CCRF-CEM lymphoblasts [10]; 1×IC50, 24 h) | S, % of positive cells (CCRF-CEM lymphoblasts [10]; 1×IC50, 24 h) | <G1 (sub-G1, fragmented DNA), % of positive cells (CCRF-CEM lymphoblasts [10]; 5×IC50, 24 h) | >G2/M (polyploidy), % of positive cells (CCRF-CEM lymphoblasts [10]; 5×IC50, 24 h) | also measured |
| --- | --- | --- | --- | --- | --- | --- | --- | --- | --- | --- | --- | --- | --- | --- | --- | --- | --- | --- | --- | --- | --- |
| COc1cc(Cn2cc([C@]3(O)CC[C@H]4[C@@H]5CCc6cc(O)ccc6[C@H]5CC[C@@]43C)nn2)cc(Cn2cc([C@]3(O)CC[C@H]4[C@@H]5CCc6cc(O)ccc6[C@H]5CC[C@@]43C)nn2)c1 [ED3, (17β,17′β)-17,17′-[(5-Methoxybenzene-1,3-diyl)bis(methanediyl-1H-1,2,3-triazole-1,4-diyl)]bisestra-1,3,5(10)-triene-3,17-diol] | 7.81% | 3.23% | 1.43% | 0.77% | < 12.2 nM | 2240 ± 1540 nM | 31.6% | > 50000 nM | > 50000 nM | 600 ± 47 nM | 380 ± 19 nM | > 50000 nM | 450 ± 39 nM | 33.51% | 10.23% | 6.68% | 70.65% | 22.67% | 53.18% | 9.8% | mitosis-specific phosphorylation of histone H3 (in words) (CCRF-CEM lymphoblasts [2]; 1× and 5×IC50, 24 h): did not induce an increase of mitosis-specific phosphorylation of histone H3; inhibitory activity against tubulin polymerisation (in words) (porcine brain tubulin): comparable or better inhibitory activity; G0/G1, % of positive cells (CCRF-CEM lymphoblasts [10]; 5×IC50, 24 h): 6.89%; G2/M, % of positive cells (CCRF-CEM lymphoblasts [10]; 5×IC50, 24 h): 71.67%; S, % of positive cells (CCRF-CEM lymphoblasts [10]; 5×IC50, 24 h): 21.44% |
| C[C@]12CC[C@@H]3c4ccc(O)cc4CC[C@H]3[C@@H]1CC[C@@]2(O)c1cn(Cc2cc(Cn3cc([C@]4(O)CC[C@H]5[C@@H]6CCc7cc(O)ccc7[C@H]6CC[C@@]54C)nn3)cc(OCCO)c2)nn1 [ED5, (17β,17′β)-17,17′-{[5-(2-Hydroxyethoxy)benzene-1,3-diyl]bis(methanediyl-1H-1,2,3-triazole-1,4-diyl)}bisestra-1,3,5(10)-triene-3,17-diol] | 32.15% | 9.59% | 6.27% | 0.34% | < 12.2 nM | 2010 ± 210 nM | 70.2% | > 50000 nM | > 50000 nM | > 50000 nM | 710 ± 40 nM | > 50000 nM | 1980 ± 170 nM | 29.35% | 6.16% | 35.53% | 26.90% | 37.57% | 36.87% | 10.73% | inhibitory activity against tubulin polymerisation (in words) (porcine brain tubulin): comparable or better inhibitory activity; also recorded: most potent inhibitor of in vitro tubulin polymerisation; IC50 cytotoxic activity A549 [6]: did not exhibit activity; G0/G1, % of positive cells (CCRF-CEM lymphoblasts [10]; 5×IC50, 24 h): 13.42%; G2/M, % of positive cells (CCRF-CEM lymphoblasts [10]; 5×IC50, 24 h): 61.48%; S, % of positive cells (CCRF-CEM lymphoblasts [10]; 5×IC50, 24 h): 25.09% |
| C[C@]12CC[C@@H]3c4ccc(O)cc4CC[C@H]3[C@@H]1CC[C@@]2(O)c1cn(Cc2cccc(Cn3cc([C@]4(O)CC[C@H]5[C@@H]6CCc7cc(O)ccc7[C@H]6CC[C@@]54C)nn3)n2)nn1 [ED, reference compound] | 19.54% | 15.94% | 8.08% | 48.71% | 24.4 ± 17 nM | 2180 ± 1800 nM | 55.6% | > 50000 nM | 1160 ± 250 nM | > 50000 nM | 490 ± 220 nM | > 50000 nM | 900 ± 320 nM | 11.51% | 11.2% | 33.48% | 25.59% | 40.93% | 22.78% | 23.1% | G0/G1, % of positive cells (CCRF-CEM lymphoblasts [10]; 5×IC50, 24 h): 2.50%; G2/M, % of positive cells (CCRF-CEM lymphoblasts [10]; 5×IC50, 24 h): 59.11%; S, % of positive cells (CCRF-CEM lymphoblasts [10]; 5×IC50, 24 h): 38.39% |
